How the values were obtained:
[1] = RNA encapsulation efficiency of LNPs by Ribogreen assay; format: physicochemical; details: LNP of 47.5% Ionizable Lipid:40% cholesterol:2.5% PEG-2000 DMG:10% DPSC, N/P ratio 4-8
Protocol: (§1) LNPs were prepared with 47.5% Ionizable Lipid (e.g., a compound provided herein):40% cholesterol:2.5% PEG-2000 DMG:10% DPSC and an N/P ratio range of 4-8. LNPs were formed by microfluidic mixing of the lipid and NA solutions using a Precision Nanosystems NanoAssemblr Spark or Benchtop series Instruments, according to the manufacturer's protocol. A ratio of aqueous to organic solvent of approximately 2:1 or 3:1 was maintained during mixing using differential flow rates. After mixing, LNPs were collected, diluted in phosphate buffer saline (PBS) or Tris-buffered saline (TBS) (approximately 1:1 v/v). Further buffer exchange was conducted using dialysis in PBS or TBS at 4° C. for 4 to 24 hours against a 20 kDa filter. After this initial dialysis, each individual LNP preparation was characterized via dynamic light scattering (DLS) to measure the size (e.g., diameter) and polydispersity. LNPs falling within specific diameter and polydispersity ranges were pooled, and further dialyzed against PBS or TBS at 4° C. for 1 to 4 hours against a 100 kDa dialysis cassette. After the second dialysis, LNPs were sterile filtered using 0.22 μm filter and stored at 4° C. for further use.
RNA concentration and encapsulation efficiency were determined by Ribogreen assay (BioTek Synergy LX plate reader).

ALAS1 target site = experiment: Base editing in liver by LNP carrying adenine base editor mRNA and sgRNA, targeted deep sequencing; format: in vivo; details: Balb/C mice, tail vein, 0.15 mg/kg total RNA (ABE mRNA:sgRNA 1:1), four to six days post-dose
Protocol: Exemplary LNP preparations were selected to determine each preparation's ability to perform base editing in a Balb/C mouse model as described herein.
Lipid nanoparticle components were dissolved in 100% ethanol at specified lipid component molar ratios. mRNA encoding an adenine base editor and a chemically-modified sgRNA was dissolved at a mass ratio of 1:1 in 50 mM citrate, pH 4.0, resulting in a concentration of NA cargo of approximately 0.1 mg/mL.
LNP preparations were formulated with molar ratios of 47.5% Ionizable Lipid:40% Cholesterol:2.5% PEG2000-DMG:10% DSPC total lipid to NA mass ratio of 6 to 12. […]
A 3:1 ratio of aqueous to organic solvent was maintained during mixing using differential flow rates. […] After this initial dialysis, each individual LNP preparation was characterized via dynamic light scattering (DLS) to measure size and polydispersity. pKa of a subpopulation of LNP preparations was measured via TNS assay. […]
Age-matched mice were also used to administer vehicle (1×TBS) via tail vein injection as a control. […] Base editing is determined by performing targeted deep sequencing analysis at the ALAS1 target site using extracted genomic DNA. […] Library size and concentration was confirmed by Fragment Analyzer (Agilent) and analyzed for […] using an Illumina HiSeq.

[2] = LNP hydrodynamic diameter and polydispersity index by dynamic light scattering (DLS); format: physicochemical; details: LNP of 47.5% Ionizable Lipid:40% cholesterol:2.5% PEG-2000 DMG:10% DPSC, N/P ratio 4-8
Protocol: as §1
LNP hydrodynamic diameter and polydispersity index (PDI) were measured using high throughput dynamic light scattering (DLS) (Stunner, Unchained Labs). LNPs were diluted 1×TBS or PBS to an appropriate concentration and analyzed.

Mean Encapsulation Efficiency (%) [1] [%] | Mean Diameter (nm) [2] [nm] | Mean PDI [2] | Structure (SMILES) | base editing observed in liver (ALAS1 target site) [%]
86.4 | 90.0 | 0.11 | CC/C=C\CCCCOC(CCC(=O)OCCCC(CCCOC(=O)CCCCCCC/C=C\C/C=C\CCCCC)OC(=O)OCC1CCCN(CC)C1)OCCCC/C=C\CC (centres unmarked) [Example 7-21, 7-((4,4-bis(((Z)-oct-5-en-1-yl)oxy)butanoyl)oxy)-4-((((1-ethylpiperidin-3-yl)methoxy)carbonyl)oxy)heptyl (9Z,12Z)-octadeca-9,12-dienoate] | 34.1
84.3 | 80.3 | 0.11 | CC/C=C\CCCCOC(CCC(=O)OCCCCC(CCCCOC(=O)CCCCCCC/C=C\C/C=C\CCCCC)OC(=O)OCC1CCCN(CC)C1)OCCCC/C=C\CC (centres unmarked) [Example 7-41, 9-((4,4-bis(((Z)-oct-5-en-1-yl)oxy)butanoyl)oxy)-5-((((1-ethylpiperidin-3-yl)methoxy)carbonyl)oxy)nonyl (9Z,12Z)-octadeca-9,12-dienoate] | 1.7

From patent publication US20240335385A1, “IONIZABLE AMINE LIPIDS AND LIPID NANOPARTICLES” (Beam Therapeutics Inc., priority 2021, published 2024)
